Data reported in patent US7973055B2, “Crystalline forms of a biphenyl compound” (Theravance, Inc., priority 2006, dated 2011).

Assays:
[1] = test system: ACh-induced bronchoconstriction; test: Duration of bronchoprotection in guinea pig model of acetylcholine-induced bronchoconstriction; format: in vivo; conditions: inhalation, 1.5 hours post-dose, expected
Description: Groups of six male guinea pigs (Duncan-Hartley (HsdPoc:DH) Harlan, Madison, Wis.) weighing between 250 and 350 g are individually identified by cage cards. Throughout the study, animals are allowed access to food and water ad libitum.
Test compounds are administered via inhalation over 10 minutes in a whole-body exposure dosing chamber (R&S Molds, San Carlos, Calif.). The dosing chambers are arranged so that an aerosol was simultaneously delivered to 6 individual chambers from a central manifold. Guinea pigs are exposed to an aerosol of a test compound or vehicle (WFI). […] This is measured gravimetrically by comparing pre-and post-nebulization weights of the filled nebulizer.
The bronchoprotective effects of test compounds administered via inhalation are evaluated using whole body plethysmography at 1.5, 24, 48 and 72 hours post-dose.
Forty-five minutes prior to the start of the pulmonary evaluation, each guinea pig is anesthetized with an intramuscular injection of ketamine (43.75 mg/kg), xylazine (3.50 mg/kg) and acepromazine (1.05 mg/kg). […] The depth of anesthesia is monitored and adjusted if the animal responds to pinching of its paw or if the respiration rate is greater than 100 breaths/minute. […]
Starting this program initiates the experimental protocol and data collection. […] By integrating this signal over time, a measurement of […] is calculated for each breath. […]

hM3 receptor (CHO cells) = biological target: T1, hM3 receptor (CHO cells) (Homo sapiens, UniProt P20309); test: Blockade of agonist-mediated calcium release via FLIPR; format: cell-based; conditions: CHO cells stably expressing hM3, FLIPR; this or a similar assay
T1 construct: expressed in transfected cells
T1 sequence (P20309 whole entry): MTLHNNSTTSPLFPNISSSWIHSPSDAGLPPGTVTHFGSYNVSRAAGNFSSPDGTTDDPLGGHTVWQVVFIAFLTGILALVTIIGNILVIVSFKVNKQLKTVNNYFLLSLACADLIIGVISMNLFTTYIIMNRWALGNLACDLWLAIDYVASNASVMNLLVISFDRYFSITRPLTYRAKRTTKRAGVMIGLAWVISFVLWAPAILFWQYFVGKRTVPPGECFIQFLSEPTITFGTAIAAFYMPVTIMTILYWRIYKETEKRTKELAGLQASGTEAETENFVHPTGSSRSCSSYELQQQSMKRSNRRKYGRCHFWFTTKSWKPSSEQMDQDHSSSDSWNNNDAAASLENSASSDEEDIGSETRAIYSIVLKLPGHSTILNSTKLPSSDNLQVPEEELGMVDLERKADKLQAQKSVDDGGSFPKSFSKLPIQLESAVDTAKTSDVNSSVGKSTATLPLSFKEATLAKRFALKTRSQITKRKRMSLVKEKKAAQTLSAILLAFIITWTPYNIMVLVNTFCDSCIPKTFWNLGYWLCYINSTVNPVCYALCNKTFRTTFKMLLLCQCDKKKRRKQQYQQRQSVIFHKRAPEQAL
Text: Muscarinic receptor subtypes (M1, M3 and M5 receptors), which couple to Gq proteins, activate the phospholipase C (PLC) pathway upon agonist binding to the receptor. As a result, activated PLC hydrolyzes phosphatyl inositol diphosphate (PIP2) to diacylglycerol (DAG) and […] (IP3), which in turn generates calcium release from intracellular stores, i.e., endoplasmic and sarcoplasmic reticulum. The FLIPR (Molecular Devices, Sunnyvale, Calif.) assay capitalizes on this increase in intracellular calcium by using a calcium sensitive dye (Fluo-4AM, Molecular Probes, Eugene, Oreg.) that fluoresces when free calcium binds. This fluorescence event was measured in real time by the FLIPR, which detected the change in fluorescence from a monolayer of cells cloned with human M1 and M3, and chimpanzee M5 receptors. Antagonist potency was determined by the ability of antagonists to inhibit agonist-mediated increases in intracellular calcium.
For FLIPR calcium stimulation assays, CHO cells stably expressing the hM1, hM3 and cM5 receptors were seeded into 96-well FLIPR plates the night before the assay was done. […]
To determine antagonist potency, the dose-dependent stimulation of intracellular Ca^2+ release for oxotremorine was first determined so that antagonist potency can later be measured against oxotremorine stimulation at an EC90 concentration. […]

In the case of `CN(CCN1CCC(OC(=O)Nc2ccccc2-c2ccccc2)CC1)C(=O)c1cccc(C(=O)NCCNCc2ccc(O)cc2)c1` [compound of formula I, biphenyl-2-ylcarbamic acid 1-[2-({3-[2-(4-hydroxybenzylamino)ethylcarbamoyl]benzoyl}methylamino)ethyl]piperidin-4-yl ester], the “PD2(50) for ACh-induced bronchoconstriction” value [1] is reported as “less than 200 μg/mL” and the Ki (hM3 receptor (CHO cells)) is reported as under 10 nM.
